Data on 13 compounds can be found in US20050197350A1, “Novel quinoline, tetrahydroquinazoline, and pyrimidine derivatives and methods of treatment related to the use thereof” (TAISHO PHARMACEUTICAL CO., LTD., priority 2003, published 2005).

Counter-ions that a name gives are not always drawn. A value given as a limit tells only on which side of the number the result lay.

In this test the target is MCH receptor (Homo sapiens, UniProt Q99705). Description: High throughput functional screening FLIPR/FDSS6000 (intracellular Ca2+ evoked by MCH). It counts as cell-based. The settings on record: FLIPR/FDSS, antagonist activity vs 50 nM MCH; class by percent of control at 10^−7 M or IC50; table after the classification; read-out: class. In outline: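 For antagonist testing, compound-treated cells (30 min, 37 °C) were stimulated with 50 nM MCH and intracellular Ca2+ followed by Fluo4 fluorescence on FLIPR/FDSS6000. Receptor was a constitutively active, non-endogenous MCH receptor; dye loading 4 μM Fluo4-AM, 1 h, 37 °C.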

On to `Cc1cc(N[C@H]2CC[C@@H](NC(=O)c3cccc(Br)c3)CC2)nc2ccccc12` [Example 3086, 3-Bromo-N-[cis-4-(4-methyl-quinolin-2-ylamino)-cyclohexyl]-benzamide hydrochloride], for which the IC50 is below 50 nM.

Consider `Cc1cc(N[C@H]2CC[C@@H](NC(=O)c3cccc(C#N)c3)CC2)nc2ccccc12` [Example 3087, 3-Cyano-N-[cis-4-(4-methyl-quinolin-2-ylamino)-cyclohexyl]-benzamide hydrochloride], for which the IC50 is below 50 nM.

For `Cc1cc(N[C@H]2CC[C@@H](NC(=O)c3cccc(C(F)(F)F)c3)CC2)nc2ccccc12` [Example 3088, N-[cis-4-(4-Methyl-quinolin-2-ylamino)-cyclohexyl]-3-trifluoromethyl-benzamide hydrochloride], the IC50 was below 50 nM.

Regarding `Cc1cc(N[C@H]2CC[C@@H](NC(=O)C(c3ccccc3)c3ccccc3)CC2)nc2ccccc12` [Example 3089, N-[cis-4-(4-Methyl-quinolin-2-ylamino)-cyclohexyl]-2,2-diphenyl-acetamide hydrochloride], the IC50 is below 50 nM.

With `Cc1cc(N[C@H]2CC[C@@H](NC(=O)c3cccnc3Oc3ccc(F)cc3)CC2)nc2ccccc12` [Example 3090, 2-(4-Fluoro-phenoxy)-N-[cis-4-(4-methyl-quinolin-2-ylamino)-cyclohexyl]-nicotinamide hydrochloride], the IC50 is below 50 nM.

For the compound `Cc1cc(N[C@H]2CC[C@@H](NC(=O)c3cccnc3Oc3ccc(F)c(F)c3)CC2)nc2ccccc12` [Example 3091, 2-(3,4-Difluoro-phenoxy)-N-[cis-4-(4-methyl-quinolin-2-ylamino)-cyclohexyl]-nicotinamide hydrochloride], the IC50 is below 50 nM.

On to `Cc1ccc(Oc2ncccc2C(=O)N[C@H]2CC[C@@H](Nc3cc(C)c4ccccc4n3)CC2)cc1` [Example 3092, N-[cis-4-(4-Methyl-quinolin-2-ylamino)-cyclohexyl]-2-p-tolyloxy-nicotinamide hydrochloride], for which the IC50 is below 50 nM.

Consider `Cc1cc(N[C@H]2CC[C@@H](NC(=O)c3cccnc3Oc3ccc(Cl)cc3)CC2)nc2ccccc12` [Example 3093, 2-(4-Chloro-phenoxy)-N-[cis-4-(4-methyl-quinolin-2-ylamino)-cyclohexyl]-nicotinamide hydrochloride], for which the IC50 is below 50 nM.

For `Cc1cc(N[C@H]2CC[C@@H](NC(=O)c3cccnc3Oc3ccc(Br)cc3)CC2)nc2ccccc12` [Example 3094, 2-(4-Bromo-phenoxy)-N-[cis-4-(4-methyl-quinolin-2-ylamino)-cyclohexyl]-nicotinamide hydrochloride], the IC50 was below 50 nM.

`COc1ccc(Oc2ncccc2C(=O)N[C@H]2CC[C@@H](Nc3cc(C)c4ccccc4n3)CC2)cc1` [Example 3095, 2-(4-Methoxy-phenoxy)-N-[cis-4-(4-methyl-quinolin-2-ylamino)-cyclohexyl]-nicotinamide hydrochloride]: the IC50 is below 50 nM.

As to `Cc1cc(N[C@H]2CC[C@@H](NC(=O)c3cccnc3Oc3ccc(F)c(Cl)c3)CC2)nc2ccccc12` [Example 3096, 2-(3-Chloro-4-fluoro-phenoxy)-N-[cis-4-(4-methyl-quinolin-2-ylamino)-cyclohexyl]-nicotinamide hydrochloride], the IC50 was below 50 nM.

In the case of `Cc1cccc(Oc2ncccc2C(=O)N[C@H]2CC[C@@H](Nc3cc(C)c4ccccc4n3)CC2)c1` [Example 3097, N-[cis-4-(4-Methylquinolin-2-ylamino)-cyclohexyl]-2-m-tolyloxy-nicotinamide hydrochloride], the IC50 is below 50 nM.

Regarding `COc1cccc(OCC(=O)N[C@H]2CC[C@@H](Nc3cc(C)c4ccccc4n3)CC2)c1` [Example 3098, 2-(3-Methoxy-phenoxy)-N-[cis-4-(4-methyl-quinolin-2-ylamino)-cyclohexyl]-acetamide hydrochloride], the IC50 was below 50 nM.
